Values joined by “and” are separate entries in the source; they are usually repeats but may differ in a detail not shown here. Equal values may be shown once.

Results on four molecules are retold here after patent EP4342530A1, “SORTILIN MODULATORS” (Insusense ApS, priority 2022, dated 2024).

Data set [1] concerns the target T1, Sortilin (Mus musculus, UniProt Q6PHU5).
T1 construct: purchased Bio-Techne Ltd 2934-ST-050
T1 sequence (Q6PHU5 76-753 limits assumed): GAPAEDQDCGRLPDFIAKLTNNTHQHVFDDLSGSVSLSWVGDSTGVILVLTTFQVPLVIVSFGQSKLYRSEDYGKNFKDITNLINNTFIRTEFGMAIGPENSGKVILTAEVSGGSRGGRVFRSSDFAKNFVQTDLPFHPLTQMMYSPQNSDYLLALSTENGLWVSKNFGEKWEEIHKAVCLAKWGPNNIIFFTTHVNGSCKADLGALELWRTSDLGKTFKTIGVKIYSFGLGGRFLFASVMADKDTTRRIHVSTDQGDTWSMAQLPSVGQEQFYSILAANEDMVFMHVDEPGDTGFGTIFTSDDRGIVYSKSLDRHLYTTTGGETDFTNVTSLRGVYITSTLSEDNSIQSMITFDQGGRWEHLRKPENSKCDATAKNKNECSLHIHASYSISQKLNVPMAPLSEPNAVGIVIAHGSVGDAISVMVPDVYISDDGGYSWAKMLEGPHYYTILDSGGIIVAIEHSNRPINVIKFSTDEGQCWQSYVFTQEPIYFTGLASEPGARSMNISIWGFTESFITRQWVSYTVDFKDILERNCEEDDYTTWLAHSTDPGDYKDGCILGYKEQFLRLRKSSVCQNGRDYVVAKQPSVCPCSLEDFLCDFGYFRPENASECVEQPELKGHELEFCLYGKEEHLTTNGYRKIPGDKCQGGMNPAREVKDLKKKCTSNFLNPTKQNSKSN
Kind of data set: Creoptix (GCI) binding kinetics, mouse Sortilin. Particulars: Species Mouse; Form of Compound Free acid; screened at 1 µM, 25 degrees Celsius. The method, then: (§1) Creoptix (GCI) method - using SEQ ID NO.4 (Murine sortillin)
(§2) A protein, bound to a surface, is bathed in a solution containing potential ligands giving rise to binding kinetics to generate Kon and Koff rates, as well as a Kd.
(§3) All buffers described were filtered using a 0.2µm filter (Product number: 10300461, Nalgene) and degassed for 15 minutes prior to use.
(§4) A flow cell temperature of 25 degrees Celsius was used throughout the experiment.
(§5) A 4PCH chip was conditioned across all flow cells using 0.2 X concentration running buffer (running buffer composition: 1XHBS-N, pH 7.4, 3.4 mM EDTA, 1% DMSO) using pre-set conditioning wizard (WAVE control software) injecting: 0.1 M borate, 1 M NaCl (pH 9) followed by three start-up injections of 0.2 X running buffer.
(§6) A buffer exchange was performed and 1x running buffer (1XHBS-N, pH 7.4, 3.4 mM EDTA, 1% DMSO) used during the immobilisation procedure: An initial injection of EDC/NHS (mixed in 1:1 ratio) was performed across all 4-flow cells to activate the surface for amine coupling of ligands.
(§7) Recombinant Sortilin aliquots were thawed quickly by hand and centrifuged at 13,300 rpm for 10 minutes. A 10 µg/ml protein solution was then made in pH 5.0 acetate and injected once for 20 minutes over flow-cells 2, 3 and 4 for human, human (flow cells 2 & 3), and mouse Sortilin respectively followed by a 60 second dissociation period.
(§8) A final 7-minute passivation injection of 50 mM tris was used across all flow cells.
(§9) A flow rate of 10 µl/min was used for all conditioning and immobilisation cycles.
(§10) Compounds were screened at 1 µM using the in-built 'intermediate binders' settings: 100 ul/min, 45 s baseline, 25 s association, 300 s dissociation, with blanks every 5th sample and a DMSO correction (1.5 % DMSO at the start and end of the experiment as well as every 20 cycles. An acquisition rate of 10 Hz was used throughout the experiment.
(§11) Compounds were screened at a final assay concentration of 1 µM and a final DMSO concentration was 1 %. To achieve this, compounds were diluted in DMSO from 10 mM stocks to 100 µM (100 x final assay concentration) then diluted 1:100 in running buffer which contained no DMSO to establish a final assay concentration of compound of 1 µM and a final DMSO concentration of 1 % [DMSO].
(§12) Compounds and DMSO were mixed by plate shaking at 1000 rpm for 60 seconds using a Bioshake instrument.
(§13) A flow rate of 100 µl/min was used throughout the experiment.
(§14) Data was evaluated using the RAPID kinetic analysis tool in the GCI WAVE_control software with data fitted using a standard 1:1 kinetic BioModel.

The target of data set [2] is T2, h-Sortilin (Homo sapiens, UniProt Q99523).
T2 sequence (Q99523 78-831): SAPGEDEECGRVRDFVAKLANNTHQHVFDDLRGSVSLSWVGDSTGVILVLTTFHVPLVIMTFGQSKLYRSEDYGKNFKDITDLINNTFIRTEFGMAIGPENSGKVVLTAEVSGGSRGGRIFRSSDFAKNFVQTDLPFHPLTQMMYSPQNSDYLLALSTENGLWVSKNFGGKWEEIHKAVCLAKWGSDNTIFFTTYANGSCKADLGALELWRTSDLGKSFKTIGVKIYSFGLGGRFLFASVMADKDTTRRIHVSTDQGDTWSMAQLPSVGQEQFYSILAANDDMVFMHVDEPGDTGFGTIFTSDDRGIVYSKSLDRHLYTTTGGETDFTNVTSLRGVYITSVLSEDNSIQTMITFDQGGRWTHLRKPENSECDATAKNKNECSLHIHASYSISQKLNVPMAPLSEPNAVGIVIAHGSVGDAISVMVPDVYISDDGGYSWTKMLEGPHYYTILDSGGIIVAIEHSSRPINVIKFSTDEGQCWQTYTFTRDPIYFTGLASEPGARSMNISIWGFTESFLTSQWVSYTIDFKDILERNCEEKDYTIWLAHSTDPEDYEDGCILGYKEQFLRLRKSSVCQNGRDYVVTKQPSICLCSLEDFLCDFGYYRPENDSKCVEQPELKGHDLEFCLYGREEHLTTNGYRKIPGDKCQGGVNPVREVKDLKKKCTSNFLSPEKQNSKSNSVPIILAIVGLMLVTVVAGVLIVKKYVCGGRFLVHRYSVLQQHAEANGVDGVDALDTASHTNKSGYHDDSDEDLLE
Kind of data set: Neurotensin scintillation proximity assay (displacement of [3H]-neurotensin binding). Particulars: 150 nM 6his-Sortilin, 5 nM [3H]-Neurotensin; average of at least 2 determinations; read-out: IC50 [3H]Neurotensin SPA. In short, it runs like this: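 Compounds pre-incubated 30 min at room temperature with 150 nM 6His-sortilin in HEPES pH 7.4 buffer with NaCl, CaCl2, BSA and Tween-20, then 5 nM [3H]-neurotensin and Ni chelate SPA beads added; read after 6 h. IC50 from 8-point variable-slope fits, mean of at least 2 determinations.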

Data set [3] addresses T3, Sortilin (Homo sapiens, UniProt Q99523).
T3 construct: purchased Bio-Techne Ltd 3154-ST-050
T3 sequence (Q99523 78-755 limits assumed): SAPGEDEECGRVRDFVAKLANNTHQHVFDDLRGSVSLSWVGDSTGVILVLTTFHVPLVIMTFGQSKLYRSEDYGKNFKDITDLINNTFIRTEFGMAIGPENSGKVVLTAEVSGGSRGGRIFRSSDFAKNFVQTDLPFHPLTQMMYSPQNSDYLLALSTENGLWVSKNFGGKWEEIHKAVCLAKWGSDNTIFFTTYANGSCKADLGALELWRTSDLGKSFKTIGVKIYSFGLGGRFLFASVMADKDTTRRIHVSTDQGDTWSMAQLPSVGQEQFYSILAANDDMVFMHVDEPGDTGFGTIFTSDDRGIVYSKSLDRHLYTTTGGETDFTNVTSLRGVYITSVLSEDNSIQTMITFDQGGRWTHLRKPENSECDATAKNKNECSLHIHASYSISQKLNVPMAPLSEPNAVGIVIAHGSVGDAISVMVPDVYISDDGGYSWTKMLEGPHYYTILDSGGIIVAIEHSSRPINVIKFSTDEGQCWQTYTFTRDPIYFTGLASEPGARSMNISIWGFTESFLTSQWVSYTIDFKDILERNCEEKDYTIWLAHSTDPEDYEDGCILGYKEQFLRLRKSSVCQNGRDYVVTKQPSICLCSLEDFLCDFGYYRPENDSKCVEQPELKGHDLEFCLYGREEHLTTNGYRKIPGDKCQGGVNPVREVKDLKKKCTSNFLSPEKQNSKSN
Kind of data set: Creoptix (GCI) binding kinetics, human Sortilin. The note with it: Species Human; Form of Compound Free acid; screened at 1 µM, 25 degrees Celsius. The procedure: as §1, §2, §3, §4, §5, §6, §7, §8, §9, §10, §11, §12, §13, §14

Data set [4] can be described thus: in vivo. The note with it: male, CD1 (ICR), mouse.
Procedure: (§18) The compound is administered to the animal in a suitable vehicle at T=0 hours. At 0.5 hours post administration plasma and separately brain are removed, prepared and analysed for total compound concentration.
(§19) Temperature: 45 °C Injection Volume: 1.5 µl for brain, 4 µl for plasma Ion Source: ESI+, SRM detection
(§20) The unbound partition coefficient (Kpuu) was determined as a ratio between the free compound concentrations in plasma and brain: Kpuu = (Cub,brain)/(Cub,plasma) [formula]
(§21) Where Cu,brain = unbound concentration in brain (C × Fub, brain); wherein • C = concentration at steady state; and • Cub,plasma = unbound concentration in plasma (C × Fub).
Data set [5] is described as follows: Blood-brain-barrier permeability in mice after IV administration. Particulars: 3 mg/kg intravenously, 0.5 hours after dosing.
Procedure: as §18, §19, §20, §21
Data set [6] in a line: in vitro. The class given is in vitro ADME. The note with it: mouse, plasma, pH 7.4. The procedure:
(§15) Plasma protein binding and brain homogenate binding for study compounds in mouse, dog, and rat by rapid equilibrium dialysis
(§16) In practice, unbound fractions in plasma and brain tissue were assessed using rapid equilibrium dialysis in vitro. Separately a pharmacokinetic study was run in vivo whereby a dose of the compound of interest was given at T=0 hours and at subsequent timepoints (eg 0.5, 1 and 4 hours) plasma and separately brain samples were analysed for total concentration of the compound of interest. These total concentrations could then be adjusted with the unbound fraction to give the unbound concentrations in the plasma and brain.
(§17) The test compounds were incubated in plasma and brain homogenate from the relevant species at 37 °C in RED device with inserts (8K MWCO, Thermo scientific) for 4 hours at 5 µM in triplicates. 350 µL of 150 mM phosphate buffered saline (PBS, pH 7.4) was used as the receiver side solutions. […] After 10-minute centrifugation at 13 200 rpm, the sample supernatants were analysed with an LC-MS/MS, to obtain the unbound fraction of the test compound (Fub). The unbound fraction was calculated from the peak area ratios obtained for each matrix: Fub = CPBS /Cplasma; [formula] where CPBS and Cplasma are the analyte concentrations in PBS (receiver) and plasma (donor), respectively. […]

A short description of data set [7]: in vitro. In kind it is in vitro ADME. Particulars: mouse, brain homogenate, pH 7.4. The method, then:
as §15, §16, §17

`C[C@H](N[C@@H](CCC(C)(C)C)C(=O)O)c1ccc2c(c1)OCO2` [Example 70]: the figures for the dissociation constant (Kd) in data set [1] and in data set [3] were 0.116 µM and 0.133 µM, respectively. Further, in data set [2], the 50% inhibitory concentration (IC50) worked out at 0.53 µM.
The matching figures for `C[C@@H](N[C@@H](CCC(C)(C)C)C(=O)O)c1ccc2c(c1)NCCC2` [Example 58]: 0.0703 µM, 0.067 µM and 0.31 µM.
In data set [4], `Cc1cccc(NC(=O)c2ccc(C(F)(F)F)cc2C(=O)O)n1` [Comparative Example 1] displayed a Kp uu at 0.5 h of under 0.1. For the same molecule, in data set [4] (3 mg/kg), the Kp at 0.5 h was under 0.01; the concentration at 0.5 h was 3090 ng/mL and 5 ng/g. For the same molecule, the “Brain to plasma ratio %” value in data set [5] is listed as under 1%. Besides, the fraction unbound at 4 h, 5 µM in data set [6] was 0.068. This molecule gave a fraction unbound at 4 h, 5 µM in data set [7] of 0.273.
For `CC(C)(C)CC[C@H](NCc1ccc2c(c1)CCCN2)C(=O)O` [Example 16, (2S)-5,5-dimethyl-2-{[(1,2,3,4-tetrahydroquinolin-6-yl)methyl]amino}hexanoic acid], the Kd in data set [1] was 0.299 µM; in data set [3], 0.255 µM. Moreover, in data set [2], the IC50 came out at 0.57 µM.
